# Measured values from US8143262B2, “7-(3′,4′-Dialkoxyphenyl)[1,2,4]-triazolo[1,5-A]pyrimidine compounds, process for preparing thereof, and pharmaceutical composition for treating or preventing asthma, chronic obstructive pulmonary disease, arthritis, atopic dermatitis, tumor and degenerative brain diseases comprising the same” (Korea Research Institute of Chemical Technology, priority 2007, dated 2012).
# Molecular target: T1, Human PDE-4d (Homo sapiens, UniProt Q08499)
# T1 construct: The catalytic domain of PDE4d was cloned to pGEX4T3 (APBiotech) as GST fusion expression vector; GST (N); made in house; host or cells: E. coli BL21, DE3
# T1 sequence (Q08499 386-715 limits assumed): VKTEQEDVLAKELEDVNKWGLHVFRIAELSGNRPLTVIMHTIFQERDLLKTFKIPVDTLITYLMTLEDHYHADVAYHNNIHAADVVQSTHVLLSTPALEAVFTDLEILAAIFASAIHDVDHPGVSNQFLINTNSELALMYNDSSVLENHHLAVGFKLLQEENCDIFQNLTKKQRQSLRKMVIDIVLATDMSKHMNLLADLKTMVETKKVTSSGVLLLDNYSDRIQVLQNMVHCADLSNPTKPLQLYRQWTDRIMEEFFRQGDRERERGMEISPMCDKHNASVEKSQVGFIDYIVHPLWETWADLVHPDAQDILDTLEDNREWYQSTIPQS
# Assay: Inhibition of PDE-4 activity ([3H]cAMP hydrolysis, recombinant catalytic domain)
# Assay type: biochemical
# Conditions: PDE4d 1 nM, cAMP 250 nM, 34° C., 45 minutes; read-out: IC50 against PDE-4 enzyme
# Experimental: Experiment of inhibiting PDE-4 activity was carried out by modifying the method of Loughney (Loughney et al., Journal of Biological Chemistry, 1996, 271(2), 796-806). Human PDE-4d prepared by means of gene recombination technology was used as PDE-4d
# The catalytic domain of PDE4d was cloned to pGEX4T3 (APBiotech) as GST fusion expression vector, and then PDE4d gene was transformed to E. coli BL21, DE3. The strain was cultured at 37° C. in LB medium, and when OD reached about 0.3˜0.5, the temperature was lowered to 18° C. to induce expression of PDE4d by using 0.5 mM IPTG. After 15 hours from induction of the expression, cells with PDE4d expressed were recovered. The cells were suspended in a buffer solution (50 mM Tris, pH 8.0, 0.4M NaCl, 5 mM DTT), and crushed, centrifuged and purified. The columns used for the purification were Q-cephalose (APBiotech), Glutanione-cephalose (APBiotech) and Superdex200 gel permeation chromatography (APBiotech), in this order.
# In order to measure the ability of individual compound to inhibit PDE4d activity, PDE4d 1 nM and cAMP (Sigma) 250 nM as substrate were added to the reaction buffer (50 mM Tris-HCl (pH 7.5) and 4 mM MgCl2), and individual compound obtained from Example 1 was added in a concentration from 1 to 50 μM thereto, and the mixture was reacted at 34° C. for 45 minutes. Total reaction solution was 60 μl. As to cAMP, a mixture with the ratio of [^3H]cAMP (Amersham, 1 μCi/μl) to cAMP (hot:cold, that is, isotope:non-isotope) being 1:200 was used. Then, the reaction was quenched by heating at 95° C. for 2 minutes. After cooling the mixture for 3 minutes, 1 mg/ml of Snake Venome (Sigma V0376) (30 μl) was added thereto. After reacting at 34° C. for 30 minutes, 30 μl of the reaction mixture was added to 250 μl of DOWEX 1×2-100 ion exchange resin (Aldrich, previously mixed with distilled water in a ratio of 1:1.6) by portions, and the mixture was vigorously stirred for 2 minutes. After settling the resin down, the supernatant (130 μl) was added to 2 ml of scintillation cocktail (Packard), and the mixture was thoroughly mixed, and then measured by using beta-counter. With respect to the enzyme activity of control group (experiment carried out without adding compound of Chemical Formula (1)), the concentration of each test compound to inhibit 50% of enzyme activity was determined as IC50.
row,Compound,IC50 [nM]
1,"FC(F)Oc1ccc(-c2ccnc3nc(-c4cccnc4)nn23)cc1OCC1CC1 [Compound 101, 7-[3-(cyclopropylmethoxy)-4-(difluoromethoxy)phenyl]-2-pyridin-3-yl-[1,2,4]triazolo[1,5-a]pyrimidine]",18
2,"FC(F)Oc1ccc(-c2ccnc3nc(-c4ccncc4)nn23)cc1OCC1CC1 [Compound 103, 7-[3-(Cyclopropylmethoxy)-4-(difluoromethoxy)phenyl]-2-pyridin-4-yl-[1,2,4]triazolo[1,5-a]pyrimidine]",79
3,"FC(F)Oc1ccc(-c2ccnc3nc(-c4ccc(Cl)nc4)nn23)cc1OCC1CC1 [Compound 104, 2-(6-chloropyridin-3-yl)-7-[3-(cyclopropylmethoxy)-4-(difluoromethoxy)phenyl]-[1,2,4]triazolo[1,5-a]pyrimidine]",160
4,"FC(F)Oc1ccc(-c2ccnc3nc(-c4cccnc4Cl)nn23)cc1OCC1CC1 [Compound 105, 2-(2-chloropyridin-3-yl)-7-[3-(cyclopropylmethoxy)-4-(difluoromethoxy)phenyl]-[1,2,4]triazolo[1,5-a]pyrimidine]",52
5,"Fc1cccc(-c2nc3nccc(-c4ccc(OC(F)F)c(OCC5CC5)c4)n3n2)c1 [Compound 106, 7-[3-(Cyclopropylmethoxy)-4-(difluoromethoxy)phenyl]-2-(3-fluorophenyl)-[1,2,4]triazolo[1,5-a]pyrimidine]",23
6,"COc1cccc(-c2nc3nccc(-c4ccc(OC(F)F)c(OCC5CC5)c4)n3n2)c1 [Compound 107, 7-[3-(Cyclopropylmethoxy)-4-(difluoromethoxy)phenyl]-2-(3-methoxyphenyl)-[1,2,4]triazolo[1,5-a]pyrimidine]",6
7,"[O-][n+]1cc(-c2nc3nccc(-c4ccc(OC(F)F)c(OCC5CC5)c4)n3n2)ccc1Cl [Compound 108, 3-[7-{3-(Cyclopropylmethoxy)-4-(difluoromethoxy)phenyl}-[1,2,4]triazolo[1,5-a]pyrimidine-2-yl]-6-Chloropyridine-N-oxide]",240
8,"[O-][n+]1cccc(-c2nc3nccc(-c4ccc(OC(F)F)c(OCC5CC5)c4)n3n2)c1Cl [Compound 109, 3-[7-{3-(Cyclopropylmethoxy)-4-(difluoromethoxy)phenyl}-[1,2,4]triazolo[1,5-a]pyrimidine-2-yl]-2-Chloropyridine-N-oxide]",160
9,"[O-][n+]1ccc(-c2nc3nccc(-c4ccc(OC(F)F)c(OCC5CC5)c4)n3n2)cc1 [Compound 110, 4-[7-{3-(Cyclopropylmethoxy)-4-(difluoromethoxy)phenyl}-[1,2,4]triazolo[1,5-a]pyrimidine-2-yl]-pyridine-N-oxide]",160
10,"FC(F)Oc1ccc(-c2ccnc3nc(-c4cccnc4)nn23)cc1OCC1CC1 [Compound 111, 3-[7-{3-(cyclopropylmethoxy)-4-(difluoromethoxy)phenyl}-[1,2,4]triazolo[1,5-a]pyrimidin-2-yl]-pyridinium bisulfate]",42
11,"FC(F)Oc1ccc(-c2ccnc3nc(-c4cccnc4)nn23)cc1OCC1CC1 [Compound 112, 3-[7-{3-(cyclopropylmethoxy)-4-(difluoromethoxy)phenyl}-[1,2,4]triazolo[1,5-a]pyrimidin-2-yl]-pyridinium chloride]",33
12,"Cc1ccc(-c2nc3nccc(-c4ccc(OC(F)F)c(OCC5CC5)c4)n3n2)cc1 [Compound 113, 7-[3-(Cyclopropylmethoxy)-4-(difluoromethoxy)phenyl]-2-p-tolyl-[1,2,4]triazolo[1,5-a]pyrimidine]",50
13,"FC(F)Oc1ccc(-c2ccnc3nc(-c4cccnc4)nn23)cc1OC(F)F [Compound 114, 7-(3,4-Bis-difluoromethoxyphenyl)-2-pyridin-3-yl[1,2,4]triazolo[1,5-a]pyrimidine]",170
14,"N#Cc1cccc(-c2nc3nccc(-c4ccc(OC(F)F)c(OCC5CC5)c4)n3n2)c1 [Compound 115, 2-(3-Cyanophenyl)-7-[3-(cyclopropylmethoxy)-4-(difluoromethoxy)phenyl]-[1,2,4]triazolo[1,5-a]pyrimidine]",10
15,"O=[N+]([O-])c1cccc(-c2nc3nccc(-c4ccc(OC(F)F)c(OCC5CC5)c4)n3n2)c1 [Compound 116, 7-[3-(Cyclopropylmethoxy)-4-(difluoromethoxy)phenyl]-2-(3-nitrophenyl)-[1,2,4]triazolo[1,5-a]pyrimidine]",20
16,"N#Cc1ccc(-c2nc3nccc(-c4ccc(OC(F)F)c(OCC5CC5)c4)n3n2)cc1 [Compound 117, 2-(4-Cyanophenyl)-7-[3-(cyclopropylmethoxy)-4-(difluoromethoxy)phenyl]-[1,2,4]triazolo[1,5-a]pyrimidine]",50
17,"O=C(O)c1ccc(-c2nc3nccc(-c4ccc(OC(F)F)c(OCC5CC5)c4)n3n2)cc1 [Compound 118, 4-[7-{3-(cyclopropylmethoxy)-4-(difluoromethoxy)phenyl}-[1,2,4]triazolo[1,5-a]pyrimidin-2-yl]benzoic acid]",30
18,"Nc1cccc(-c2nc3nccc(-c4ccc(OC(F)F)c(OCC5CC5)c4)n3n2)c1 [Compound 119, 2-(3-Aminophenyl)-7-[3-(cyclopropylmethoxy)-4-(difluoromethoxy)phenyl]-[1,2,4]triazolo[1,5-a]pyrimidine]",6
19,"FC(F)Oc1ccc(-c2ccnc3nc(-c4cccc(Cl)c4)nn23)cc1OCC1CC1 [Compound 120, 2-(3-Chlorophenyl)-7-[3-(cyclopropylmethoxy)-4-(difluoromethoxy)phenyl]-[1,2,4]triazolo[1,5-a]pyrimidine]",40
20,"FC(F)Oc1ccc(-c2ccnc3nc(-c4cccc(Br)c4)nn23)cc1OCC1CC1 [Compound 121, 2-(3-Bromophenyl)-7-[3-(cyclopropylmethoxy)-4-(difluoromethoxy)phenyl]-[1,2,4]triazolo[1,5-a]pyrimidine]",14
21,"N#Cc1cccc(-c2nc3nccc(-c4ccc(OC(F)F)c(OC(F)F)c4)n3n2)c1 [Compound 122, 7-(3,4-Bis-difluoromethoxyphenyl)-2-(3-cyanophenyl)-[1,2,4]triazolo[1,5-a]pyrimidine]",47
22,"N#Cc1ccc(-c2nc3nccc(-c4ccc(OC(F)F)c(OCC5CC5)c4)n3n2)cn1 [Compound 123, 2-(2-cyano-pyridin-5-yl)-7-[3-(cyclopropylmethoxy)-4-(difluoromethoxy)phenyl]-[1,2,4]triazolo[1,5-a]pyrimidine]",170
23,"N#Cc1ncccc1-c1nc2nccc(-c3ccc(OC(F)F)c(OCC4CC4)c3)n2n1 [Compound 124, 2-(6-cyano-pyridin-5-yl)-7-[3-(cyclopropylmethoxy)-4-(difluoromethoxy)phenyl]-[1,2,4]triazolo[1,5-a]pyrimidine]",190
24,"FC(F)Oc1ccc(-c2ccnc3nc(-c4ccc(C(F)(F)F)cc4)nn23)cc1OCC1CC1 [Compound 125, 7-[3-(Cyclopropylmethoxy)-4-(difluoromethoxy)phenyl]-2-(4-trifluoromethylphenyl)-[1,2,4]triazolo[1,5-a]pyrimidine]",190
25,"FC(F)Oc1ccc(-c2ccnc3nc(-c4cccc(I)c4)nn23)cc1OCC1CC1 [Compound 126, 7-[3-(Cyclopropylmethoxy)-4-(difluoromethoxy)phenyl]-2-(3-iodophenyl)-[1,2,4]triazolo[1,5-a]pyrimidine]",5
26,"FC(F)Oc1ccc(-c2ccnc3nc(-c4ccc(I)cc4)nn23)cc1OCC1CC1 [Compound 127, 7-[3-(Cyclopropylmethoxy)-4-(difluoromethoxy)phenyl]-2-(4-iodophenyl)-[1,2,4]triazolo[1,5-a]pyrimidine]",50
27,"FC(F)Oc1ccc(-c2ccnc3nc(-c4cccc(C(F)(F)F)c4)nn23)cc1OCC1CC1 [Compound 128, 7-[3-(Cyclopropylmethoxy)-4-(difluoromethoxy)phenyl]-2-(3-trifluoromethylphenyl)-[1,2,4]triazolo[1,5-a]pyrimidine]",30

# Same assay, conditions: comment on Table 2
row,Compound,activity on inhibiting PDE-4 (in words)
1,"COc1cccc(-c2nc3nccc(-c4ccc(OC(F)F)c(OCC5CC5)c4)n3n2)c1 [Compound 107, 7-[3-(Cyclopropylmethoxy)-4-(difluoromethoxy)phenyl]-2-(3-methoxyphenyl)-[1,2,4]triazolo[1,5-a]pyrimidine]",excellent activity on inhibiting PDE-4
2,"N#Cc1cccc(-c2nc3nccc(-c4ccc(OC(F)F)c(OCC5CC5)c4)n3n2)c1 [Compound 115, 2-(3-Cyanophenyl)-7-[3-(cyclopropylmethoxy)-4-(difluoromethoxy)phenyl]-[1,2,4]triazolo[1,5-a]pyrimidine]",excellent activity on inhibiting PDE-4
3,"Nc1cccc(-c2nc3nccc(-c4ccc(OC(F)F)c(OCC5CC5)c4)n3n2)c1 [Compound 119, 2-(3-Aminophenyl)-7-[3-(cyclopropylmethoxy)-4-(difluoromethoxy)phenyl]-[1,2,4]triazolo[1,5-a]pyrimidine]",excellent activity on inhibiting PDE-4
4,"FC(F)Oc1ccc(-c2ccnc3nc(-c4cccc(Br)c4)nn23)cc1OCC1CC1 [Compound 121, 2-(3-Bromophenyl)-7-[3-(cyclopropylmethoxy)-4-(difluoromethoxy)phenyl]-[1,2,4]triazolo[1,5-a]pyrimidine]",excellent activity on inhibiting PDE-4
5,"FC(F)Oc1ccc(-c2ccnc3nc(-c4cccc(I)c4)nn23)cc1OCC1CC1 [Compound 126, 7-[3-(Cyclopropylmethoxy)-4-(difluoromethoxy)phenyl]-2-(3-iodophenyl)-[1,2,4]triazolo[1,5-a]pyrimidine]",most excellent activity
